Experimental data: PMC9861623, “New Ferulic Acid and Amino Acid Derivatives with Increased Cosmeceutical and Pharmaceutical Potential” (Pharmaceutics, 2022)
Where “and” joins values, the source holds several entries; their conditions need not be identical. Equal values may be shown once.

Tests used:
[1] = n-octanol/water partition coefficient by shake flask method; assay type: physicochemical
Experimental: The n-octanol/water partition coefficient (log PO/W) was determined for ferulic acid and its derivatives by shake flask method. n-Octanol saturated with water and water saturated with n-octanol were prepared at 25 °C, 24 h prior to their use in the experiments. Then, a sample of 10 mg of compound was weighed with the accuracy of 0.01 mg in a 16 cm^3 screwed vial and dissolved in 5 cm^3 of n-octanol. Next, 5 cm^3 of water was added to the vial. The resulting two-phase mixture was kept in water bath shaker at 25 °C for 2 h and was strongly shaken to reach the partition equilibrium of the compound between the phases. Then the mixture was left unshaken for 30 min and 1.0 cm^3 of water phase was carefully taken out to centrifuge tube. The sample was next centrifuged for 10 min at 7500 rpm at 25 °C to ensure the most precise phase separation. The concentration of compound in water phase was then determined using HPLC method. The partition coefficient, log PO/W was calculated according to the formula: logPO/W=logC0V0−CWVW/CWVW where: C0—initial concentration of the compound in n-octanol, calculated based on the weighed mass of compound, mg·cm^−^3; V0—volume of n-octanol, cm^3; CW—concentration of the compound in water after partition equilibrium, mg·cm^−^3; VW—volume of water, cm^3.

[2] = DPPH radical scavenging assay of the compounds
Experimental: (§1) To determine the antioxidant capacity of ferulic acid and its derivatives the DPPH method was used. The analyses were performed using the Hitachi UV-Vis Spectrophotometer U-5100 at the wavelength λ = 517 nm. Trolox (6-hydroxy-2,5,7,8-tetramethylchroman-2-carboxylic acid) was used as a reference substance. The antioxidant activity was expressed as %RSA and mmol Trolox dm^−3. […]. Blank samples without antioxidant were prepared in the same way. The tubes were wrapped in aluminum foil and were sealed with a stopper and then incubated for 10 min at room temperature. After this time, spectrophotometric measurements were carried out in triplicate. For determination of antioxidant activity of the acceptor fluid after 24 h of permeation and solutions obtained by extraction of the skin obtained after penetration study, 0.15 mL samples of each solutions were separately added to 2.85 mL of DPPH solution and spectrophotometric measurements were performed. The antioxidant activity was expressed as mmol Trolox·dm^−3.

[3] = Skin permeation in Franz diffusion cells; assay type: in vitro ADME, pig; details: 24 h, 10 mg as FA applied
Experimental: In the experiment, abdominal porcine skin coming from the local slaughterhouse was used. Pig skin was chosen because of its similar permeability to human skin [34, 35]. The fresh abdominal porcine skin was washed several times in PBS buffer pH 7.4. The skin of 0.5 mm in thickness was dermatomed and divided into 2 cm × 2 cm pieces. The skin samples were wrapped in aluminum foil and stored at −20 °C until use, not longer than 3 months. According to Badran et al., this storage time at this temperature is safe to keep skin barrier properties. Immediately before the experiment, the skin samples were slowly thawed at room temperature for 30 min and then were hydrated by PBS pH 7.4 [37, 38, 39, 40]. Such prepared skin was mounted on donor chamber. Only the undamaged skin pieces with an even thickness were chosen for experiments. The integrity of the skin was checked by impedance measurement using an LCRmeter4080 (Conrad Electronic, Hirschau, Germany), operated in parallel mode at an alternating frequency of 120 Hz (error at kΩ values < 0.5%). The tips of measuring probes were immersed in the donor and acceptor chamber containing PBS (pH 7.4), as described previously. Only skin samples of impedance > 3 kΩ were applied as such impedance is similar to the electrical resistance of human skin [42].
The concentration of FA and its derivatives in the acceptor fluid and in the fluid obtained by skin extraction after permeation experiment was assessed using liquid chromatography system (Knauer, Berlin, Germany) consisting of a model 2600 UV detector, Smartline model 1050 pump and Smartline model 3950 autosampler. HPLC was controlled by ClarityChrom 2009 software. The detector was operated at 280 nm. The separations were performed on 125 mm × 4 mm ID chromatographic column filled with Hyperisil ODS (C18), particle size 5 µm, in isocratic mode. The mobile phase consisted of acetonitrile, 1% acetic acid, and MeOH (47/47/6 v/v/v) and was pumped at flow rate of 1 mL min^−1. The column temperature was set at 25 °C, and the injection volume was 20 µL.
(§2) The permeation experiments were performed using Franz diffusion cells (Phoenix DB-6, ABL&E-JASCO, Wien, Austria). The diffusion was 1 cm^2. The volume of the acceptor chamber was 8 mL. This chamber was filled with PBS solution (pH 7.4). During experiment, a constant temperature of 37.0 ± 0.5 °C was maintained in each diffusion unit. The acceptor chamber content was stirred with a magnetic stirring bar at the same speed for all cells. The prepared pig skin was mounted on each donor chamber. As previously mentioned, only undamaged skin pieces with an even thickness were chosen for experiments. Thereafter, the hydrogel or emulsion vehicle/preparation in 1 g portion was put on the skin in donor cells. For comparison, 1 mL ethanolic solution containing either FA or its derivatives was applied to another donor chamber. The amount of the FA and its derivatives applied on the skin expressed as the mass of ferulic acid was 0.01 g and was the same for each carrier. The penetration experiments were carried out for 24 h. The samples were collected after 1 h, 2 h, 3 h, 4 h, 5 h, 6 h, 8 h, and 24 h. Aliquots of the acceptor fluid (0.5 mL) were withdrawn and to each acceptor chamber the same volume of fresh PBS solution was added. The FA and its derivatives’ concentrations in the acceptor fluid were measured by HPLC method (Section 2.6.2). The cumulative mass (µg·cm^−2) and penetration rate (µg·cm^−2·h^−1) were calculated. The acceptor fluid collected after 24 h of permeation was also measured for antioxidant activity and total polyphenol content (as described in Section 2.5.1 and Section 2.5.2).

[4] = DPPH antioxidant activity of acceptor fluid after 24 h permeation; parameters: species or system pig; details: after 24 h penetration
Experimental: as §1, §2

[5] = DPPH antioxidant activity of solution obtained after skin extraction; parameters: species or system pig; details: after 24 h penetration
Experimental: as §1
(§3) The accumulation of the FA and its derivatives in the skin after 24 h permeation process through the skin were determined using a modification of the methods described by Janus et al. and Taokaew et al.. After 24 h of permeation experiment, the skin samples were removed from the Franz diffusion cell, washed three times with 0.5% sodium lauryl sulfate solution and dried at room temperature. Next, after cutting out the diffusion area of each skin sample, the samples were immersed in 2 mL of absolute ethanol and continuously stirred at 300 rpm at room temperature for 24 h. The samples were then centrifuged, and clear solutions were collected and analyzed by HPLC method for the determination of FA and its derivatives. The accumulation of the active substance in the skin was calculated by dividing the amount of the drug remaining in the skin by a mass of skin sample and was expressed in mass active substance per mass of the skin (µg g^−1). For solution obtained after skin extraction, the antioxidant activity and total polyphenol content were also determined (as described in Section 2.5.1 and Section 2.5.2).

[6] = Accumulation in the skin after 24 h permeation; assay type: in vitro ADME, pig; details: 24 h penetration, ethanol solution
Experimental: as §3

[7] = Thermogravimetric (TG) analysis, thermal stability; assay type: physicochemical; details: air atmosphere, 10 °C·min^−1
Experimental: Samples of 2–5 mg, loaded in aluminium crucibles, were heated from 30 °C to 600 °C at the heating rate of 10 °C·min^−1, in the air atmosphere (25 mL·min^−1) with nitrogen flow (10 mL·min^−1) as the purge gas.

[8] = system: Murine fibroblasts (L929); assay: Cytotoxicity, PrestoBlue resazurin-based cell viability assay; details: 2.0 mM, 24 h, PrestoBlue, normalized to control
Experimental: The cell biocompatibility was evaluated using a PrestoBlue HS Cell Viability Reagent (Thermo Fisher Scientific, MA USA) based on the reduction of the resazurin to highly fluorescent resorufin, of which the amount is directly correlated to the number of living cells. […] The cells without tested compounds were used as control. The interaction of tested compounds without cells and Prestoblue Reagent (blank wells) was excluded. After 24 h of treatment, optical microscopy imaging of L929 cells was performed using Smart Fluorescent Cell Analyzer Microscope JuLi (Seoul, Korea). Next, the PrestoBlue reagent (10 μL) was added to each well and incubated for 30 min. The fluorescence was measured using a spectrophotometric microplate reader (Infinite 200 Pro, Tecan, Männedorf, Switzerland) at ex/em: 560/594 nm. The readings were acquired from at least three independent experiments (each conducted in triplicate) and normalized to the control (100% viability).

[9] = molar ratio antioxidant:DPPH 0.1, 10 min
[10] = molar ratio antioxidant:DPPH 1.0, 10 min
[11] = molar ratio antioxidant:DPPH 2.0, 10 min

CCCOC(=O)[C@@H]1CCCN1.COc1cc(/C=C/C(=O)O)ccc1O [PPr[FA], L-proline propyl ester ferulate]
Share of compound partitioned to n-octanol ([1]; from log PO/W): 74% | log PO/W ([1]; n-octanol/water, shake flask, 25 °C): 0.447 ± 0.022 | Antioxidant activity %RSA [2, 9]: 19.3 ± 0.001 %RSA and 19.3 ± 0.001 a %RSA | Antioxidant activity, Trolox equivalents [2, 9]: 0.115 ± 0.001 mmol Trolox dm^−3 and 0.115 ± 0.001 a mmol Trolox dm^−3 | Antioxidant activity %RSA [2, 10]: 79.6 ± 0.001 b %RSA | Antioxidant activity, Trolox equivalents [2, 10]: 0.697 ± 0.001 b mmol Trolox dm^−3 | Antioxidant activity %RSA [2, 11]: 87.7 ± 0.001 %RSA and 87.7 ± 0.001 b %RSA | Antioxidant activity, Trolox equivalents [2, 11]: 0.775 ± 0.001 mmol Trolox dm^−3 and 0.775 ± 0.001 b mmol Trolox dm^−3 | Cumulative Permeation Mass ([3]; from emulsion): 128.80 ± 19.86 µg FA·cm^−2 and 128.80 ± 19.86 a µg FA·cm^−2 | Cumulative Permeation Mass ([3]; from hydrogel): 396.86 ± 42.13 µg FA·cm^−2 and 396.86 ± 42.13 b µg FA·cm^−2 | Cumulative Permeation Mass ([3]; from solution in 70% (v/v) ethanol): 427.00 ± 4.674 µg FA·cm^−2 and 427.00 ± 4.67 b µg FA·cm^−2 | DPPH antioxidant activity of the acceptor fluid ([4]; emulsion): 0.061 ± 0.007 mmol Trolox dm^−3 and 0.061 ± 0.007 a mmol Trolox dm^−3 | DPPH antioxidant activity of the acceptor fluid ([4]; ethanol solution): 0.094 ± 0.002 a mmol Trolox dm^−3 | DPPH antioxidant activity of the acceptor fluid ([4]; hydrogel): 0.075 ± 0.012 mmol Trolox dm^−3 and 0.075 ± 0.012 a mmol Trolox dm^−3 | DPPH antioxidant activity of the solution obtained after skin extraction ([5]; emulsion): 0.198 ± 0.006 a mmol Trolox dm^−3 | DPPH antioxidant activity of the solution obtained after skin extraction ([5]; ethanol solution): 0.259 ± 0.007 a mmol Trolox dm^−3 | DPPH antioxidant activity of the solution obtained after skin extraction ([5]; hydrogel): 0.351 ± 0.036 ab mmol Trolox dm^−3 | Accumulation in the skin compared to pure FA [6]: accumulated in a significantly smaller amount compared to pure FA | Td onset, the onset of decomposition ([7]; TG): 122.8 °C | Td max, temperature of the fastest mass loss of the sample ([7]; TG/DTG): 148.7 °C | L929 viability [8]: 78.56 ± 2.73%
